Data on one molecule can be found in patent publication US20240082196A1, “COMBINED USE OF UBENIMEX AND IMMUNE CHECKPOINT INHIBITOR” (NIPPON KAYAKU KABUSHIKI KAISHA, priority 2021, published 2024).

Data set [1] deals with mouse melanoma cells B16-F0. Put plainly: antitumor effect in B16-F0 subcutaneous transplantation model. The class given is in vivo. As to conditions: 15 days after transplantation. The method, then: The antitumor effect of the combined administration of ubenimex and the anti-mouse PD-1 antibody was evaluated with a model in which the mouse melanoma cells B16-F0 were subcutaneously transplanted. Fluctuation in cytokines and immune system markers was confirmed at the same time.
First, 2×10^5 B16-F0 were subcutaneously transplanted to female C57BL/6N mice (Charles River Laboratories Japan, Inc.) to produce a subcutaneous transplantation model.
Ubenimex was orally administered to subcutaneous transplantation model B16-F0 mice once a day, 14 times in total, in a dosage of 5 or 50 mg/kg from the day following the transplantation to 14 days after transplantation. Furthermore, an anti-mouse PD-1 antibody was intraperitoneally administered in a dosage of 200 μg/body 4, 7, 11, and 14 days after the transplantation. […]
The major axis and the minor axis of the tumors were measured with a digital micrometer caliper (Mitutoyo Corporation), and the tumor volumes (mm 3) were calculated by the expression “major axis×minor axis^2/2”. The relative tumor volume (T/C) of each treated group to the control group was calculated by the expression “average tumor volume of the test substance-treated group/average tumor volume of control group×100” using the tumor volume value 15 days after the transplantation. […]

In the next data set the test system is Tregs. Put plainly: immunophenotyping of lymphocytes in peripheral blood by flow cytometry, B16-F0 model. The conditions noted are these: ubenimex alone. The class given is in vivo, mouse. The method, then: The blood collected by the autopsies after the confirmation of the antitumor effects was analyzed for lymphocytes in peripheral blood by flow cytometry.
The peripheral blood was subjected to hemolysis treatment with a Lysing Buffer to prepare peripheral blood mononuclear cells (PBMCs), the Fc receptors were then blocked with the anti-mouse CD16/32 antibody, and the cell surface markers CD45, CD3, CD4, CD8, and CD25 were stained. The PBMCs were fixed and permeabilized, and the nuclear factor FOXP3 was stained, and measurement was performed with the flow cytometer LSRII (Becton, Dickinson and Company).
Tregs identified using CD45+, CD3+, CD4+, CD25+, and FOXP3+ were used as indices for evaluation. The existence rate of Tregs in CD45-positive cells was calculated, and the number of Tregs per 1 μL of the peripheral blood was calculated from the value of the total white blood cell count.
A general note: A flow cytometer gives signals particle by particle.

Data set [2] is described as follows: mouse blood concentration transition, single oral administration. The class given is in vivo. The conditions noted are these: for AUC(0-inf) / Cmax / MRT inf / Tmax: fasted female C57BL/6N mice, plasma. As to the method:
First, 9 nine-week-old fasted female C57BL/6N mice (Charles River Laboratories Japan, Inc.) in each group were subjected to the single oral administration of 5 mg/kg or 50 mg/kg of ubenimex. Blood collecting time points were 9 time points that were time points 5, 10, and 30 minutes, 1, 3, 6, 8, 12, and 24 hours after the administration. Then, 0.1 mL of blood was collected from the jugular vein under isoflurane anesthesia from 5 minutes to 6 hours after the administration, and the whole blood was collected from the vena cava under isoflurane anesthesia 8 hours or more after the administration. To secure n=3 at each time point, the blood collection was sparse blood collection in which blood was collected from one individual at 3 time points, and three animals were replaced as one set. Plasma was prepared from the obtained blood, and the plasma ubenimex concentration was measured with a liquid chromatography mass spectrometer (LC/MS/MS).

Data set [3] concerns mouse colon adenocarcinoma cells MC38. Put plainly: antitumor effect in MC38 subcutaneous transplantation model. The class given is in vivo. As to conditions: 25 days after transplantation. The method, then: The antitumor effect of the combined administration of ubenimex and the anti-mouse PD-1 antibody was evaluated with a subcutaneous transplantation model of the mouse colon adenocarcinoma cells MC38.
Then, 1×10^5 MC38 cells were subcutaneously transplanted into female C57BL/6N mice (Charles River Laboratories Japan, Inc.) to produce the subcutaneous transplantation model. Ubenimex was orally administered to each subcutaneous transplantation model mouse of MC38 in a dosage of 0.5 or 5 mg/kg once a day, 24 times in total, from the day following the transplantation to 24 days after the transplantation. Furthermore, the anti-mouse PD-1 antibody was intraperitoneally administered in a dosage of 50 μg/body 7, 11, 14, 18, 21, and 24 days after the transplantation. […]
The major axis and the minor axis of the tumors were measured with a digital micrometer caliper (Mitutoyo Corporation), and the tumor volumes (mm 3) were calculated by the expression “major axis×minor axis^2/2”. The relative tumor volume (T/C) of each treated group to the control group was calculated by the expression “average tumor volume of the test substance-treated group/average tumor volume of control group×100” using the tumor volume value 25 days after the transplantation. […]

Setting [4] is: ubenimex 5 mg/kg oral once daily.

In the case of `CC(C)C[C@H](NC(=O)[C@@H](O)[C@H](N)Cc1ccccc1)C(=O)O` [ubenimex, (2S)-2-[(2S,3R)-3-amino-2-hydroxy-4-phenylbutanoylamino]-4-methylpentanoic acid], the “relative average tumor volume (T/C) to the control group” value (“relative average tumor volume (T/C)” below) in data set [1] (setting [4]) was “did not exhibit tumor growth inhibition effect”. Moreover, the “relative average tumor volume (T/C)” value in data set [1] (ubenimex 50 mg/kg oral once daily) is given as “did not exhibit tumor growth inhibition effect”. The “numbers of Tregs in the peripheral blood” value with Tregs is given as “no change”. For the same molecule, the dosage proportionality result in data set [2] (dosage of 5 to 50 mg/kg in the mouse) was “dosage proportionality was generally obtained”. For the same molecule, in data set [2] (mouse, 5 mg/kg single oral), the AUC(0-inf) (usually total exposure, with the tail of the curve extrapolated) turned out to be 3240 ng·h/mL; the Cmax (usually the highest concentration seen after dosing) was 4600 ng/mL; the MRT inf (commonly a mean duration of stay, worked out from the concentration-time curve) was determined as 52.3 min; the Tmax (commonly the time at which the peak concentration occurs) is 4.98 min. For the same molecule, in data set [2] (mouse, 50 mg/kg single oral), the AUC(0-inf) was 47700 ng·h/mL, the concentration peaked (Cmax) at 44000 ng/mL, the MRT inf came out at 55.1 min and the Tmax was found to be 10.2 min. Further, in data set [2] (single oral, mouse), the “AUCinf, ratio of 50 mg/5 mg” value turned out to be 14.7 times; the “Cmax, ratio of 50 mg/5 mg” value came to 9.57 times; the “MRTinf, ratio of 50 mg/5 mg” value turned out to be 1.05 times. In addition, the “relative average tumor volume (T/C)” value in data set [3] (ubenimex 0.5 mg/kg oral once daily) is listed as 62%. Besides, the “relative average tumor volume (T/C)” value in data set [3] (setting [4]) is recorded as 51%.
